Reference: patent US20240131038A1, “ANTI-INFLAMMATORY COMPOSITIONS COMPRISING CANNABIDIOL, DELTA-9-TETRAHYDROCANNABINOL AND LINALOOL” (Cymra Life Sciences Limited, priority 2020, published 2024)
Like-named read-outs stand apart in the source and are kept apart here.

Tests used:
Assay type in all cases: cell-based, murine
Conditions in all cases: for IC50: Mus musculus
NO release = experiment: Nitric oxide (NO) assay: NO release in LPS-stimulated RAW264.7 macrophages (Griess reagent)
Description: (§1) Anti-inflammatory activity was determined in lipopolysaccharide (LPS) stimulated murine macrophages, RAW264.7 cells cultured in standard cell culture media (DMEM, Fetal bovine serum 5%) and incubated in the presence or absence of different test compounds/extracts and controls. The production of inflammatory mediators, including NO, cytokines TNFα and IL-6, were measured by established methods using commercial ELISA kits (Table 3). Each sample was tested with at least 6 concentrations (using 3 replicates; i.e., n=9), with relevant internal controls (Table 3). The cytotoxicity of each sample tested was determined by MTT assay.
(§2) Briefly, for the NO, TNFα and IL-6 assays the cultured RAW264.7 cells were counted and plated (0.8×10^5 cells/well) in 96 well plates and incubated for 48 hours. The medium was then aspirated and replaced with fresh medium followed by the addition of the test compounds. The compounds were incubated for 1 hour prior to the addition of the stimulant. The plates were then incubated for 18 hours and the supernatant analyzed for the inflammatory mediator of interest, the remaining cell viability was determined by MTT.
(§3) The data are presented as mean and standard error of mean (SEM). The dose response curves were fit using Graph Pad Prism. The 95% confidence intervals (CI) were calculated using the whole data set and give an estimate error in the IC50 value. The 95% CI for the IC50 where the IC50 was not reached in the testing concentrations require graphical extrapolation to calculate the IC50. Where the IC50 has been estimated by graphical extrapolation “˜” is used to indicate that it is an estimate and not experimentally determined, unless otherwise stated. The graphical extrapolation results in a wider 95% confidence interval.
(§4) The synergism combination index (CI) and isobologram IC50 weightings were calculated using Compsyn software. The dose response curve generated in GraphPad prism was transformed into 15 points representing the curve. These 15 points were then entered into the Compsyn program that generated a curve to fit the data points. This method was preferable to closely replicate the complete dose response curve in the synergy program. The Compsyn fit curve was then used for synergy calculations.
(§5) A CI value of less than 0.5 is considered highly synergistic, a CI of less than 1 indicates synergy, a CI of from 1.5 to 1 is considered additive, a CI of from 4 to 1.5 is indifferent and a CI greater than 4 is considered antagonism.

TNF-α release = experiment: TNF-α assay: TNF-α release in LPS-stimulated RAW264.7 macrophages (ELISA)
Description: as §1, §2, §3, §4, §5

IL-6 release = experiment: IL-6 assay: IL-6 release in LPS-stimulated RAW264.7 macrophages (ELISA)
Description: as §1, §2, §3, §4, §5

[1] = RAW264.7, 18 h, read-out: IC50 for NO inhibition
[2] = RAW264.7, read-out: Compusyn IC50
[3] = RAW264.7, 18 h, TNF-α inhibition, total concentration of the combination, Table 8, read-out: GraphPad IC50
[4] = RAW264.7, TNF-α inhibition, Compusyn fit curve, Table 8, read-out: Compusyn IC50
[5] = LPS-stimulated RAW264.7 cells, 18 h, Table 7, read-out: IC50 for TNF-α inhibition
[6] = RAW264.7, 18 h, IL-6 assay, total concentration of the combination, Table 11, read-out: GraphPad IC50
[7] = RAW264.7, IL-6 assay, Compusyn fit curve, Table 11, read-out: Compusyn IC50
[8] = LPS-stimulated RAW264.7 cells, 18 h, Table 10, read-out: IC50 for IL-6 inhibition

With `CC(=N)NCc1cccc(CN)c1` [1400 W, N-(3-(Aminomethyl)benzyl)acetamidine] the IC50 (NO release; [1]) was 1.2 µg/mL.

For `C=C(C)[C@@H]1CCC(C)=C[C@H]1c1c(O)cc(CCCCC)cc1O` [CBD, cannabidiol], the “NO inhibition and synergy, result in words” value (NO release; LPS-stimulated RAW264.7 cells) was “most active compound for NO inhibition”, the IC50 (NO release; [1]) was 1.4 µg/mL and the IC50 (NO release; [2]) was 1.4 µg/mL. The “TNF-α inhibition and synergy, result in words” value (TNF-α release; LPS-stimulated RAW264.7 cells) was “most active compound for TNF-α inhibition”, the IC50 (TNF-α release; [3]) was 4.6 µg/mL and the IC50 (TNF-α release; [4]) was 4.6 µg/mL. The IC50 (TNF-α release; [5]) was 4.6 µg/mL, the “IL-6 inhibition and synergy, result in words” value (IL-6 release; LPS-stimulated RAW264.7 cells) was “most active compound for IL-6 inhibition” and the IC50 (IL-6 release; [6]) was 1.4 µg/mL. For the same compound, the IC50 (IL-6 release; [7]) was 1.4 µg/mL and the IC50 (IL-6 release; [8]) was 1.4 µg/mL.

Compound `C[C@@H]1C[C@H]2[C@@H]3CCC4=CC(=O)C=C[C@]4(C)[C@@]3(F)[C@@H](O)C[C@]2(C)[C@@]1(O)C(=O)CO` [Dexamethasone, dexamethasone] has an IC50 (TNF-α release; [5]) of 2.7 µg/mL and an IC50 (IL-6 release; [8]) of 0.016 µg/mL.

In the case of `C=CC(C)(O)CCC=C(C)C` (stereo not drawn) [Linalool, linalool], the IC50 (NO release; [1]) was greater than 240 µg/mL, the IC50 (NO release; [2]) was greater than 240 µg/mL and the “Compusyn IC50” value (NO release; NO assay, Table 6) was greater than 240 µg/mL. The IC50 (TNF-α release; [3]) was greater than 240 µg/mL, the IC50 (TNF-α release; [4]) was greater than 240 µg/mL and the IC50 (TNF-α release; [5]) was greater than 240 µg/mL. The “Compusyn IC50” value (TNF-α release; TNF-α assay, Table 9) was greater than 240 µg/mL, the “Compusyn IC50” value (IL-6 release; IL-6 assay, Table 12) was greater than 240 µg/mL and the IC50 (IL-6 release; [6]) was greater than 240 µg/mL. For the same compound, the IC50 (IL-6 release; [7]) was greater than 240 µg/mL and the IC50 (IL-6 release; [8]) was greater than 240 µg/mL.

`CCCCCc1cc(O)c2c(c1)OC(C)(C)[C@@H]1CCC(C)=C[C@@H]21` [THC, Δ-9-tetrahydrocannabinol] gave an IC50 (NO release; [1]) of 6.5 µg/mL, an IC50 (NO release; [2]) of 6.5 µg/mL and an IC50 (TNF-α release; [3]) of 44 µg/mL. The IC50 (TNF-α release; [4]) was 45 µg/mL, the IC50 (TNF-α release; [5]) was 44 µg/mL and the IC50 (IL-6 release; [6]) was 4.2 µg/mL. The IC50 (IL-6 release; [7]) was 4.2 µg/mL and the IC50 (IL-6 release; [8]) was 4.2 µg/mL.
